This note sets out measurements from patent US20070287738A1, “Substituted Cyanopyridines as protein kinase inhibitors” (priority 2006, published 2007).

T1 sequence (Q04759 362-706): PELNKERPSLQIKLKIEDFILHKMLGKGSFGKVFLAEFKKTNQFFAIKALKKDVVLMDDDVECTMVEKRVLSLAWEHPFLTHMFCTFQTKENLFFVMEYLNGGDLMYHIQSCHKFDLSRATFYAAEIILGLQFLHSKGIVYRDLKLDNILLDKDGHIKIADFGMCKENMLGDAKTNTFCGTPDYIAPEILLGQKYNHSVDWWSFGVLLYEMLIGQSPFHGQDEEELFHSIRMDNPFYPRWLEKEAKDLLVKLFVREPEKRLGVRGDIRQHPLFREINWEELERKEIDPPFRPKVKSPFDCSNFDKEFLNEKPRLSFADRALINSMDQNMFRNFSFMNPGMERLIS
T3 sequence (Q04759 whole entry): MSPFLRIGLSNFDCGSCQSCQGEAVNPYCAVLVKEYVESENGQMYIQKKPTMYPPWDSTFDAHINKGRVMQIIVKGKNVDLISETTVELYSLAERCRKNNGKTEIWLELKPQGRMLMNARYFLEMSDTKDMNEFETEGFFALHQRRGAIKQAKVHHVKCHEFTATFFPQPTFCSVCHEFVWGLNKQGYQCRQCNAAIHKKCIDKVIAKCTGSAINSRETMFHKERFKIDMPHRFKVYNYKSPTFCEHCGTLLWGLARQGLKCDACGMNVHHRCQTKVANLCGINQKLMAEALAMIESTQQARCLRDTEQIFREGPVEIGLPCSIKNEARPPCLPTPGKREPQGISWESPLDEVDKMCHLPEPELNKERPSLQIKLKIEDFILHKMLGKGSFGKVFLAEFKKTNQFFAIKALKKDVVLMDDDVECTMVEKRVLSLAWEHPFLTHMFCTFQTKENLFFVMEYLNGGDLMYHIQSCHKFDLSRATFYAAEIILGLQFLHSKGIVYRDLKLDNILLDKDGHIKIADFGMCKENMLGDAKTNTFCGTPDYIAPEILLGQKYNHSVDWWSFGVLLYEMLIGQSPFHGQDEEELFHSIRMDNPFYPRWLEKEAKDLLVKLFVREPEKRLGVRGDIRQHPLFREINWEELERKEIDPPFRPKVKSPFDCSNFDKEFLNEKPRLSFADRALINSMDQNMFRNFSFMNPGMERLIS

The first assay has as its target T1, purified recombinant active kinase domain of full length PKC theta (amino acids 362-706) (Homo sapiens, UniProt Q04759).
T1 construct: active kinase domain of full length PKC theta (amino acids 362-706)
The experiment in a line: Radioactive kinase assay for inhibition of the active kinase domain (KD) of PKCθ. The class given is biochemical. The note with it: radioactive (ATP γ P33) assay, average value. As for the experimental part:
A Radioactive Kinase Assay for Inhibition of the Active Kinase Domain (KD) of PKCθ
(§1) This assay is based on the phosphorylation of a biotinylated substrate by a kinase utilizing radiolabeled ATP (ATP γ P33). The substrate was a biotinylated peptide with a sequence of biotin-FARKGSLRQ-C(O)NH2. The enzyme was purified recombinant active kinase domain of full length PKC theta (amino acids 362-706). The assay buffer was composed of 100 mM Hepes, pH7.5, 2 mM MgCl2, 20 mM β-glycerophosphate and 0.008% TritonX 100. A reaction mixture of ATP, ATP γ P33 (PerkinElmer), DTT, and the enzyme was prepared in the assay buffer and added to a 96-well polypropylene plate. The compound (diluted in DMSO in a separate 96-well polypropylene plate) was added to the reaction mixture and incubated at room temperature. Following the incubation, the peptide substrate was added to the reaction mixture to initiate the enzymatic reaction. The reaction was terminated with the addition of a stop solution (100 mM EDTA, 0.2% TritonX100, and 20 mM NaHPO4) and transferred from the assay plate to a washed streptavidin-coated 96-well scintiplate (PerkinElmer). The scintiplate was incubated at room temperature, washed in PBS with 0.1% TritonX 100, and counted in the 1450 Microbeta Trilux (Wallac, Version 2.60). Counts were recorded for each well as corrected counts per minute (CCPM). The counts were considered corrected because they were adjusted according to a P33 normalization protocol, which corrects for efficiency and background differences between the instrument detectors (software version 4.40.01).
As to `COc1ccc(Nc2c(C#N)cncc2-c2ccc(OC)c(OC)c2)cc1OC` [Compound 105, 5-(3,4-dimethoxyphenyl)-4-[(3,4-dimethoxyphenyl)amino]nicotinonitrile], the IC50 was found to be 10.6 µM. Still for that read-out and setting: next, `COc1ccc(-c2cncc(C#N)c2Nc2ccc(Cl)cc2F)cc1OC` [Compound 106, 4-[(4-chloro-2-fluorophenyl)amino]-5-(3,4-dimethoxyphenyl)nicotinonitrile]: 0.84 µM.

`COc1ccc(-c2cncc(C#N)c2Nc2ccc(F)c(Cl)c2)cc1OC` [Compound 107, 4-[(3-chloro-4-fluorophenyl)amino]-5-(3,4-dimethoxyphenyl)nicotinonitrile]: the IC50 amounted to 2.91 µM. Still for that read-out and setting: next, `COc1ccc(-c2cncc(C#N)c2Nc2ccc(Cl)cc2)cc1OC` [Compound 108, 4-[(4-chlorophenyl)amino]-5-(3,4-dimethoxyphenyl)nicotinonitrile]: 2.77 µM; `COc1ccc(-c2cncc(C#N)c2Nc2ccc(C)cc2C)cc1OC` [Compound 109, 5-(3,4-dimethoxyphenyl)-4-[(2,4-dimethylphenyl)amino]nicotinonitrile]: 0.81 µM; `COc1ccc(Nc2c(C#N)cncc2-c2ccc(OC)c(OC)c2)cc1` [Compound 110, 5-(3,4-dimethoxyphenyl)-4-[(4-methoxyphenyl)amino]nicotinonitrile]: 1.16 µM. For `COc1ccc(Nc2c(C#N)cncc2-c2ccc(OC)c(OC)c2)cc1Cl` [Compound 111, 4-[(3-chloro-4-methoxyphenyl)amino]-5-(3,4-dimethoxyphenyl)nicotinonitrile], the IC50 came out at 1.41 µM. On the same count and under the same terms, next, `COc1ccc(-c2cncc(C#N)c2Nc2cc(Cl)ccc2Cl)cc1OC` [Compound 113, 4-[(2,5-dichlorophenyl)amino]-5-(3,4-dimethoxyphenyl)nicotinonitrile]: 3.6 µM. The same measure, in the same setting: next, `COc1ccc(Nc2c(C#N)cncc2-c2ccc(OC)c(OC)c2)c(C)c1` [Compound 114, 5-(3,4-dimethoxyphenyl)-4-[(4-methoxy-2-methylphenyl)amino]nicotinonitrile]: 0.4 µM; `COc1ccc(Cl)cc1Nc1c(C#N)cncc1-c1ccc(OC)c(OC)c1` [Compound 116, 4-[(5-chloro-2-methoxyphenyl)amino]-5-(3,4-dimethoxyphenyl)nicotinonitrile]: 3.2 µM; `COc1ccc(-c2cncc(C#N)c2Nc2cccc(OCc3ccccc3)c2)cc1OC` [Compound 117, 4-{[3-(benzyloxy)phenyl]amino}-5-(3,4-dimethoxyphenyl)nicotinonitrile]: 13.8 µM. Same read-out and setting: next, `COc1ccc(-c2cncc(C#N)c2Nc2ccc(C)cc2)cc1OC` [Compound 118, 5-(3,4-dimethoxyphenyl)-4-[(4-methylphenyl)amino]nicotinonitrile]: 4.44 µM.

Take `COc1ccc(-c2cncc(C#N)c2Nc2cc(OC)c(OC)c(OC)c2)cc1OC` [Compound 119, 5-(3,4-dimethoxyphenyl)-4-[(3,4,5-trimethoxyphenyl)amino]nicotinonitrile]: the IC50 amounted to 11.7 µM. Take `COc1ccc(-c2cncc(C#N)c2Nc2ccc(OCc3cccc(C#N)c3)c(Cl)c2)cc1OC` [Compound 122, 4-({3-chloro-4-[(3-cyanobenzyl)oxy]phenyl}amino)-5-(3,4-dimethoxyphenyl)nicotinonitrile]: the IC50 amounted to 1040 µM. As to `COc1ccc(-c2cncc(C#N)c2Nc2ccc(OCc3cccs3)c(Cl)c2)cc1OC` [Compound 123, 4-{[3-chloro-4-(thien-2-ylmethoxy)phenyl]amino}-5-(3,4-dimethoxyphenyl)nicotinonitrile], the IC50 came to 38 µM.

As for `COc1ccc(-c2cncc(C#N)c2Nc2ccc(Cl)cc2Cl)cc1OC` [Compound 126, 4-[(2,4-dichlorophenyl)amino]-5-(3,4-dimethoxyphenyl)nicotinonitrile], the IC50 turned out to be 0.34 µM. On the same count and under the same terms, next, `COc1ccc(-c2cncc(C#N)c2Nc2cccc(Br)c2)cc1OC` [Compound 135, 4-[(3-bromophenyl)amino]-5-(3,4-dimethoxyphenyl)nicotinonitrile]: 5 µM; `N#Cc1cncc(-c2cccc([N+](=O)[O-])c2)c1Nc1ccc(OCc2ccccc2)c(Cl)c1` [Compound 142, 4-{[4-(benzyloxy)-3-chlorophenyl]amino}-5-(3-nitrophenyl)nicotinonitrile]: 214 µM. On the same count and under the same terms, next, `N#Cc1cncc(-c2cccc([N+](=O)[O-])c2)c1Nc1ccc(F)c(Cl)c1` [Compound 144, 4-[(3-chloro-4-fluorophenyl)amino]-5-(3-nitrophenyl)nicotinonitrile]: 158 µM. Same read-out and setting: next, `N#Cc1cncc(-c2ccccc2[N+](=O)[O-])c1Nc1ccc(F)c(Cl)c1` [Compound 146, 4-[(3-chloro-4-fluorophenyl)amino]-5-(2-nitrophenyl)nicotinonitrile]: 3.85 µM.

In a further assay the target is T2, purified recombinant full length PKC theta (Panvera, P2996) (Homo sapiens, UniProt Q04759).
T2 construct: purified recombinant full length PKC theta (Panvera, P2996); purchased Panvera P2996
T2 sequence (Q04759 whole entry): as above
As to the kind of experiment: Radioactive kinase assay for inhibition of full length (FL) PKCθ. The class given is biochemical. The note with it: full length enzyme; radioactive (ATP γ P33) assay; average value. As for the experimental part: as §1
A Radioactive Kinase Assay for Inhibition of Full Length (FL) PKCθ Inhibitors
This assay differs from what was described above in that the enzyme used was purified recombinant full length PKC theta (Panvera, P2996).
For the compound `CCOc1cc(Nc2c(C#N)cncc2-c2ccc(OC)c(OC)c2)c(Cl)cc1Cl` [Compound 138, 4-[(2,4-dichloro-5-ethoxyphenyl)amino]-5-(3,4-dimethoxyphenyl)nicotinonitrile], the IC50 amounted to 0.32 µM. Same read-out and setting: next, `CCCOc1cc(Nc2c(C#N)cncc2-c2ccc(OC)c(OC)c2)c(Cl)cc1Cl` [Compound 139, 4-[(2,4-dichloro-5-propoxyphenyl)amino]-5-(3,4-dimethoxyphenyl)nicotinonitrile]: 8 µM. Consider `CCCCOc1cc(Nc2c(C#N)cncc2-c2ccc(OC)c(OC)c2)c(Cl)cc1Cl` [Compound 140, 4-[(5-butoxy-2,4-dichlorophenyl)amino]-5-(3,4-dimethoxyphenyl)nicotinonitrile], for which the IC50 turned out to be 9.75 µM. Regarding `COc1ccc(-c2cncc(C#N)c2Nc2cc(OCCO)c(Cl)cc2Cl)cc1OC` [Compound 141, 4-{[2,4-dichloro-5-(2-hydroxyethoxy)phenyl]amino}-5-(3,4-dimethoxyphenyl)nicotinonitrile], the IC50 was found to be 0.16 µM. Still for that read-out and setting: next, `COCCOc1cc(-c2cncc(C#N)c2Nc2cc(OC)c(Cl)cc2Cl)ccc1OC` [Compound 148, 4-[(2,4-dichloro-5-methoxyphenyl)amino]-5-[4-methoxy-3-(2-methoxyethoxy)phenyl]nicotinonitrile]: 0.52 µM; `COCCOc1ccc(-c2cncc(C#N)c2Nc2cc(OC)c(Cl)cc2Cl)cc1OC` [Compound 149, 4-[(2,4-dichloro-5-methoxyphenyl)amino]-5-[3-methoxy-4-(2-methoxyethoxy)phenyl]nicotinonitrile]: 7.09 µM; `COc1cc(Nc2c(C#N)cncc2-c2cccc(OCCCl)c2)c(Cl)cc1Cl` [Compound 150, 5-[3-(2-chloroethoxy)phenyl]-4-[(2,4-dichloro-5-methoxyphenyl)amino]nicotinonitrile]: 0.5 µM.

For `COc1cc(Nc2c(C#N)cncc2-c2cccc(OCCN3CCCC3)c2)c(Cl)cc1Cl` [Compound 151, 4-[(2,4-dichloro-5-methoxyphenyl)amino]-5-[3-(2-pyrrolidin-1-ylethoxy)phenyl]nicotinonitrile], the IC50 was determined as 7.1 µM.

The next assay has as its target T3, human PKCθ full length enzyme (Homo sapiens, UniProt Q04759).
T3 construct: human PKCθ full length enzyme (Panvera Cat# P2996); purchased Panvera P2996
As to the kind of experiment: PKCθ IMAP assay. The settings on record: full length enzyme 1 nM; ATP 6 μM; peptide 100 nM; FP readout; average value. It is filed as biochemical. As for the experimental part: The materials used include the following: human PKCθ full length enzyme (Panvera Cat# P2996); substrate peptide: 5FAM-RFARKGSLRQKNV-OH (Molecular Devices, RP7032); ATP (Sigma Cat # A2383); DTT (Pierce, 20291); 5× kinase reaction buffer (Molecular Devices, R7209); 5× binding buffer A (Molecular Devices, R7282), 5× binding buffer B (Molecular Devices, R7209); IMAP Beads (Molecular Devices, R7284); and 384-well plates (Corning Costar, 3710).
The reaction buffer was prepared by diluting the 5× stock reaction buffer and adding DTT to obtain a concentration of 3.0 mM. The binding buffer was prepared by diluting the 5× binding buffer A. A master mix solution was prepared using a 90% dilution of the reaction buffer containing 2× ATP (12 uM) and 2× peptide (200 nm). Compounds were diluted in DMSO to 20× of the maximum concentration for the IC50 measurement. 27 μl of the master mix solution for each IC50 curve was added to the first column in a 384-well plate and 3 μl of 20× compound in DMSO was added to each well. The final concentration of compound was 2× and 10% DMSO. DMSO was added to the rest of the master mix to increase the concentration to 10%. 10 μl of the master mix containing 10% DMSO was added to the rest of the wells on the plate except the 2nd column. 20 μl was transferred from the first column to the 2nd column.
The compounds were serially diluted in 2:1 ratio starting from the 2nd column. A 2× (2 nM) PKCθ solution was made in the reaction buffer. 10 μl of the PKCθ solution was added to every well to achieve these final concentrations: PKCθ—1 nM; ATP—6 μM; peptide—100 nM; DMSO—5%. Samples were incubated for 25 minutes at room temperature. The binding reagent was prepared by diluting the beads in 1× binding buffer to 800:1. 50 μl of the binding reagent was added to every well and incubated for 20 minutes. FP was measured using Envision2100 (PerkinElmer Life Sciences). Wells with no ATPs and wells with no enzymes were used as controls.
Compound `COc1ccc(-c2cncc(C#N)c2Nc2cc(OC)c(OC)c(OC)c2)cc1OC` [Compound 119, 5-(3,4-dimethoxyphenyl)-4-[(3,4,5-trimethoxyphenyl)amino]nicotinonitrile] came in with an IC50 of 1.95 µM. On to `COc1ccc(-c2cncc(C#N)c2Nc2cc(OCCO)c(Cl)cc2Cl)cc1OC` [Compound 141, 4-{[2,4-dichloro-5-(2-hydroxyethoxy)phenyl]amino}-5-(3,4-dimethoxyphenyl)nicotinonitrile], for which the 50% inhibitory concentration (IC50) worked out at 0.1 µM.
